The text below walks through data of article PMC6934184, “Selective DNA-PKcs inhibition extends the therapeutic index of localized radiotherapy and chemotherapy” (The Journal of Clinical Investigation, 2019).

The experiment addresses T1, PAK1 (Homo sapiens, UniProt Q13153).
T1 construct: purchased Thermo Fisher Scientific (Life Technologies) SelectScreen
The experiment is described as follows: SelectScreen Z'LYTE. In kind it is biochemical. The essentials:
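NU5455 was profiled across the SelectScreen Broad panel of kinase activity and binding assays. Z'LYTE reactions such as CSF1R ran at apparent Km ATP, while the Adapta CAMK1 assay used ATP listed as 10. Values are given as percent.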

T1 sequence (Q13153 whole entry): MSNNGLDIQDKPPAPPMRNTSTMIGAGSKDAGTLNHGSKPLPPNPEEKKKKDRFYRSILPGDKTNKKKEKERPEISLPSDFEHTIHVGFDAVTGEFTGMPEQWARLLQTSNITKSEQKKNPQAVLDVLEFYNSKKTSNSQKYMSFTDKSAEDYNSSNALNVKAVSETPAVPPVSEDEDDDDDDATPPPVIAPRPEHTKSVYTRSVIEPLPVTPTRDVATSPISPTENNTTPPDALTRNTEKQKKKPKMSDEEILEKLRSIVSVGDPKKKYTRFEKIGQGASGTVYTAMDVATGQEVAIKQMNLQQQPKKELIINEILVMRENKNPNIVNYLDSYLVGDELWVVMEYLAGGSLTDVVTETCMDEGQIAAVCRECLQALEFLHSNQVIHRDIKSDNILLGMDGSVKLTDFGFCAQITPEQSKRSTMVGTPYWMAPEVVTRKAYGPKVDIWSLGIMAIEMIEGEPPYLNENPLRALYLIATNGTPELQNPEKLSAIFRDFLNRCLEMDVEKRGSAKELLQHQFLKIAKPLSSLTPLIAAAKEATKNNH

In the case of `CN(C(=O)CN1CCOCC1)c1ccc2sc3c(-c4cccc5c(=O)cc(N6CC7CCC(C6)O7)oc45)cccc3c2c1` [NU5455], the inhibition at 1 µM was -4.4%.

For orientation: inhibition means the relative decrease from the control value, in per cent.
